Usually pIC50 stands for the IC50 on a negative log10 scale, so that one unit is a factor of ten.

pIC50: −log10 of the molar value.

The target of this assay is Recombinant human c-Src (Homo sapiens (Human), UniProt P12931). Description: Src kinase inhibition in vitro (luciferase-based residual ATP, KinaseGlo). It counts as biochemical. The note with it: ATP 3 μM, PTK2 substrate, 90 minutes at room temperature. As for the experimental part:
The ability of compounds of the present invention to inhibit the activity of three groups of kinases was tested. Kinases tested included the src family (primarily src and yes), some angiogenic growth factor receptors (Fgfr1, Vegfr, and Pdgfrβ) and the ephrin, EphB4. All kinase reactions were conducted in 96-well plates with a final reaction volume of 50 ul.
After reacting for about 90 minutes at room temperature, residual ATP was determined using a luciferase-based assay (KinaseGlo, Promega Corp.) as a measure of kinase activity. Data from four wells were then averaged and used to determine IC50 values for the test compounds (Prism software package, GraphPad Software, San Diego Calif.).
The test results for inhibition of Src kinase are presented in Table 1, and the test results for inhibition of some other kinases (i.e., Yes, EphB4, and Pdgfrβ) are presented in Table 2.
On the technique in general: In Kinase-Glo more light means more ATP remaining.

Chain of Recombinant human c-Src (P12931 whole entry, looked up): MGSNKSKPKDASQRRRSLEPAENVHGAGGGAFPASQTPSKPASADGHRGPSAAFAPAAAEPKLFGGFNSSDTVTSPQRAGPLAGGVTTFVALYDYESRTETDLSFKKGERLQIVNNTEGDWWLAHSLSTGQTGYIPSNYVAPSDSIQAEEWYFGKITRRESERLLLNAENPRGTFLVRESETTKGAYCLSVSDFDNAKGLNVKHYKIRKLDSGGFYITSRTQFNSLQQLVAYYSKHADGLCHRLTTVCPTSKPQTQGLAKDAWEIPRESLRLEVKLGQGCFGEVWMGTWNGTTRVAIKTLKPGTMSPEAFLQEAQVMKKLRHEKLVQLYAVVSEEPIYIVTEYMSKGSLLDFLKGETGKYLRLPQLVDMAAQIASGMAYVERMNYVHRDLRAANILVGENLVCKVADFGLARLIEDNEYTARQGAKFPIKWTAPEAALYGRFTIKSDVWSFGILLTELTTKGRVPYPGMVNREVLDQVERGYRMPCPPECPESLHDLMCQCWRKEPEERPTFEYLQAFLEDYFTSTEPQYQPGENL

For `Cc1ccc(C#N)cc1-c1cc(C)c2nc(Nc3ccc(S(=O)(=O)NCCN4CCCC4)cc3)nnc2c1`, the negative logarithm of the IC50 (pIC50) is 7.60.

Take `Cc1cccc(C)c1-c1cc(C)c2nc(Nc3ccc(N(C)C)cc3)nnc2c1`: the pIC50 is 6.61.

Regarding `Cc1cc2nc(Nc3ccc(S(=O)(=O)NCCN4CCCC4)cc3)nnc2cc1-c1ccccc1` [4-(6-methyl-7-phenyl-benzo[1,2,4]triazin-3-ylamino)-N-(2-pyrrolidin-1-yl-ethyl)-benzenesulfonamide], the negative logarithm of the IC50 (pIC50) is 6.50.

For `Cc1cc(-c2c(O)cccc2Cl)cc2nnc(Nc3ccc(S(=O)(=O)NCCN4CCCC4)cc3)nc12` [4-(7-(2-chloro-6-hydroxyphenyl)-5-methylbenzo[e][1,2,4]triazin-3-ylamino)-N-(2-(pyrrolidin-1-yl)ethyl)benzensulfonamide], the pIC50 was 7.90.

`CNc1cccc(-c2cc(C)c3nc(Nc4ccc(S(=O)(=O)NCCN5CCCC5)cc4)nnc3c2)c1` [4-[5-methyl-7-(3-methylamino-phenyl)-benzo[1,2,4]triazin-3-ylamino]-N-(2-pyrrolidin-1-yl-ethyl)-benzenesulfonamide]: the negative-log IC50 (pIC50) was 6.20.

Consider `Cc1cc2nc(Nc3ccc(S(=O)(=O)NCCN4CCCC4)cc3)nnc2cc1-c1ccccc1C(F)(F)F` [4-[6-methyl-7-(2-trifluoromethyl-phenyl)-benzo[1,2,4]triazin-3-ylamino]-N-(2-pyrrolidin-1-yl-ethyl)-benzenesulfonamide], for which the pIC50 was 7.18.

Take `Cc1cc(-c2c(Cl)cccc2Cl)cc2nnc(Nc3ccc(S(=O)(=O)NCCN4CCCC4)cc3)nc12` [4-[7-(2,6-dichloro-phenyl)-5-methyl-benzo[1,2,4]triazin-3-ylamino]-N-(2-pyrrolidin-1-yl-ethyl)-benzenesulfonamide]: the negative-log IC50 (pIC50) is 7.85.

For `Cc1cc2nc(Nc3ccc(S(=O)(=O)NCCN4CCCC4)cc3)nnc2cc1-c1ccccc1CO` [4-[7-(2-Hydroxymethyl-phenyl)-6-methyl-benzo[1,2,4]triazin-3-ylamino]-N-(2-pyrrolidin-1-yl-ethyl)-benzenesulfonamide], the negative logarithm of the IC50 (pIC50) was 7.14.

As for `Cc1cc(-c2cccc(N)c2)cc2nnc(Nc3ccc(S(=O)(=O)NCCN4CCCC4)cc3)nc12` [4-[7-(3-amino-phenyl)-5-methyl-benzo[1,2,4]triazin-3-ylamino]-N-(2-pyrrolidin-1-yl-ethyl)-benzenesulfonamide], the pIC50 was 6.55.

On to `Cc1cc(-c2cccc(NS(C)(=O)=O)c2)cc2nnc(Nc3ccc(S(=O)(=O)NCCN4CCCC4)cc3)nc12` [4-[7-(3-methanesulfonylamino-phenyl)-5-methyl-benzo[1,2,4]triazin-3-ylamino]-N-(2-pyrrolidin-1-yl-ethyl)-benzenesulfonamide], for which the pIC50 was 5.54.

On to `Cc1ccc(C#N)cc1-c1cc2nnc(Nc3ccc(S(=O)(=O)NCCN4CCCC4)cc3)nc2cc1C` [4-[7-(5-Cyano-2-methyl-phenyl)-6-methyl-benzo[1,2,4]triazin-3-ylamino]-N-(2-pyrrolidin-1-yl-ethyl)-benzenesulfonamide], for which the negative-log IC50 (pIC50) is 7.91.

Regarding `Cc1cc(-c2cc(N)ccc2Cl)cc2nnc(Nc3ccc(S(=O)(=O)NCCN4CCCC4)cc3)nc12` [4-[7-(5-amino-2-chloro-phenyl)-5-methyl-benzo[1,2,4]triazin-3-ylamino]-N-(2-pyrrolidin-1-yl-ethyl)-benzenesulfonamide], the pIC50 was 7.29.

With `Cc1cccc(C)c1-c1cc(N)c2nc(Nc3ccc(OCCN4CCCC4)cc3)nnc2c1` [7-(2,6-dimethyl-phenyl)-N3-[4-(2-pyrrolidin-1-yl-ethoxy)-phenyl]-benzo[1,2,4]triazine-3,5-diamine], the negative-log IC50 (pIC50) is 8.01.

In the case of `CNc1cc(-c2c(C)cccc2C)cc2nnc(Nc3ccc(OCCN4CCCC4)cc3)nc12` [7-(2,6-dimethyl-phenyl)-N5-methyl-N3-[4-(2-pyrrolidin-1-yl-ethoxy)-phenyl]-benzo[1,2,4]triazine-3,5-diamine], the negative logarithm of the IC50 (pIC50) was 7.97.

With `Cc1cccc(Nc2nnc3cc(-c4c(C)cccc4C)cc(C)c3n2)c1C` [(2,3-dimethyl-phenyl)-[7-(2,6-dimethyl-phenyl)-5-methyl-benzo[1,2,4]triazin-3-yl]-amine], the pIC50 is below 5.00.

Turning to `Cc1ccc(Nc2nnc3cc(-c4c(C)cccc4C)cc(C)c3n2)c(C)c1` [(2,4-dimethyl-phenyl)-[7-(2,6-dimethyl-phenyl)-5-methyl-benzo[1,2,4]triazin-3-yl]-amine], the pIC50 was below 5.00.

For the compound `Cc1ccc(C)c(Nc2nnc3cc(-c4c(C)cccc4C)cc(C)c3n2)c1` [(2,5-dimethyl-phenyl)-[7-(2,6-dimethyl-phenyl)-5-methyl-benzo[1,2,4]triazin-3-yl]-amine], the negative-log IC50 (pIC50) was below 5.00.

`COc1ccccc1Nc1nnc2cc(-c3c(C)cccc3C)cc(C)c2n1` [(2-methoxy-phenyl)-[7-(2,6-dimethyl-phenyl)-5-methyl-benzo[1,2,4]triazin-3-yl]-amine]: the negative logarithm of the IC50 (pIC50) is below 4.00.

As for `Cc1cccc(C)c1-c1cc(C)c2nc(Nc3cccc(Cl)c3)nnc2c1` [(3-chloro-phenyl)-[7-(2,6-dimethyl-phenyl)-5-methyl-benzo[1,2,4]triazin-3-yl]-amine], the negative logarithm of the IC50 (pIC50) is 6.87.

As for `CCCCc1ccc(Nc2nnc3cc(-c4c(C)cccc4C)cc(C)c3n2)cc1` [(4-butyl-phenyl)-[7-(2,6-dimethyl-phenyl)-5-methyl-benzo[1,2,4]triazin-3-yl]-amine], the pIC50 is below 4.00.

As to `CCOc1ccc(Nc2nnc3cc(-c4c(C)cccc4C)cc(C)c3n2)cc1` [(4-ethoxy-phenyl)-[7-(2,6-dimethyl-phenyl)-5-methyl-benzo[1,2,4]triazin-3-yl]-amine], the pIC50 was 6.97.

Regarding `COc1ccc(Nc2nnc3cc(-c4c(C)cccc4C)cc(C)c3n2)cc1` [(4-methoxy-phenyl)-[7-(2,6-dimethyl-phenyl)-5-methyl-benzo[1,2,4]triazin-3-yl]-amine], the negative-log IC50 (pIC50) is 6.85.

In the case of `Cc1cc(N2CCCCC2)cc2nnc(Nc3cccnc3)nc12` [(5-methyl-7-piperidin-1-yl-benzo[1,2,4]triazin-3-yl)-pyridin-3-yl-amine], the negative logarithm of the IC50 (pIC50) is below 5.00.

For the compound `Cc1cc(-c2ccccn2)cc2nnc(Nc3ccc(OCCN4CCCC4)cc3)nc12` [(5-methyl-7-pyridin-2-yl-benzo[1,2,4]triazin-3-yl)-[4-(2-pyrrolidin-1-yl-ethoxy)-phenyl]-amine], the negative logarithm of the IC50 (pIC50) was 5.74.

With `Cc1cc(-c2cc(OC(=O)c3ccccc3)ccc2Cl)cc2nnc(Nc3ccc(OCCN4CCCC4)cc3)nc12` [Benzoic acid 4-chloro-3-{5-methyl-3-[4-(2-pyrrolidin-1-yl-ethoxy)-phenylamino]-benzo[1,2,4]triazin-7-yl}-phenyl ester], the pIC50 was below 5.00.

`CC(=O)Nc1nnc2cc(-c3c(C)cccc3C)cc(C)c2n1` [N-[7-(2,6-dimethyl-phenyl)-5-methyl-benzo[1,2,4]triazin-3-yl]-acetamide]: the negative-log IC50 (pIC50) was below 5.00.

Regarding `Cc1cccc(C)c1-c1cc(C)c2nc(NC(=O)c3ccccc3)nnc2c1` [N-[7-(2,6-dimethyl-phenyl)-5-methyl-benzo[1,2,4]triazin-3-yl]-benzamide], the pIC50 was 5.74.

Regarding `Cc1cc(C)c(-c2cc(C)c3nc(Nc4ccccc4)nnc3c2)c(C)c1` [[5-methyl-7-(2,4,6-trimethyl-phenyl)-benzo[1,2,4]triazin-3-yl]-phenyl-amine], the negative-log IC50 (pIC50) was below 5.00.

As to `Clc1cccc(Cl)c1-c1ccc2nc(Nc3ccc(OCCN4CCCC4)cc3)nnc2c1` [[7-(2,6-dichloro-phenyl)-benzo[1,2,4]triazin-3-yl]-[4-(2-pyrrolidin-1-yl-ethoxy)-phenyl]-amine], the pIC50 was 6.92.

Turning to `Cc1cccc(C)c1-c1cc2nnc(Nc3ccccc3)nc2c(C)c1C` [[7-(2,6-dimethyl-phenyl)-5,6-dimethyl-benzo[1,2,4]triazin-3-yl]-phenyl-amine], the pIC50 is 6.89.

Turning to `Cc1cccc(C)c1-c1cc(C)c2nc(Nc3cccc(S(=O)(=O)N4CCNCC4)c3)nnc2c1` [[7-(2,6-dimethyl-phenyl)-5-methyl-benzo[1,2,4]triazin-3-yl]-[3-(piperazine-1-sulfonyl)-phenyl]-amine], the pIC50 was 7.32.

Turning to `Cc1cccc(C)c1-c1cc(C)c2nc(Nc3ccc(S(=O)(=O)N4CCN(C)CC4)cc3)nnc2c1` [[7-(2,6-dimethyl-phenyl)-5-methyl-benzo[1,2,4]triazin-3-yl]-[4-(4-methyl-piperazine-1-sulfonyl)-phenyl]-amine], the pIC50 was 6.86.

`Cc1cccc(C)c1-c1cc(C)c2nc(Nc3ccccn3)nnc2c1` [[7-(2,6-dimethyl-phenyl)-5-methyl-benzo[1,2,4]triazin-3-yl]-pyridin-2-yl-amine]: the negative logarithm of the IC50 (pIC50) is below 5.00.

Turning to `Cc1cccc(C)c1-c1cc(C)c2nc(Nc3ccncc3)nnc2c1` [[7-(2,6-dimethyl-phenyl)-5-methyl-benzo[1,2,4]triazin-3-yl]-pyridine-4-yl-amine], the pIC50 is 7.44.

For the compound `Cc1cccc(C)c1-c1cc(C)c2nc(Nc3cccc4cccnc34)nnc2c1` [[7-(2,6-dimethyl-phenyl)-5-methyl-benzo[1,2,4]triazin-3-yl]-quinolin-8-yl-amine], the pIC50 was below 5.00.

For the compound `Cc1cccc(C)c1-c1cc(C)c2nc(Nc3ccc(OCCCN4CCCC4)cc3)nnc2c1` [[7-(2,6-dimethyl-phenyl)-5-methyl-benzo[1,2,4]triazin-3-yl]-{4-(3-pyrrolidin-1-yl-propoxy)-phenyl]-amine], the negative-log IC50 (pIC50) was 7.90.

For `Cc1cc2nc(Nc3ccc(OCCN4CCCC4)cc3)nnc2cc1-c1c(C)cccc1C` [[7-(2,6-dimethyl-phenyl)-6-methyl-benzo[1,2,4]triazin-3-yl]-[4-(2-pyrrolidin-1-yl-ethoxy)-phenyl]-amine], the negative-log IC50 (pIC50) is 7.91.

The record behind these values is US8481536B2, “Benzotriazine inhibitors of kinases” (TargeGen, Inc., priority 2004, dated 2013).
